In general, IC50 refers to the midpoint of a concentration-inhibition curve.

For one experiment, the system named is isolated rat aorta. As to the kind of experiment: Test with the use of isolated rat aorta (relaxation of potassium chloride contraction). Conditions: read-out: Rat aorta IC50. The protocol:
The thoracic aorta was taken out from male Sprague Dawley rats weighing 450 to 600 g and cut into circular samples of 2 mm in width. […] The contraction reactions of the samples were isometrically recorded with FD pick-up. After 1 to 1.5 hours of equilibration, 30 mM potassium chloride was added to contract the tissue. […] As the test compounds, the invention compounds obtained in the above Examples were employed.
For the compound `COc1cc(CC(=O)N2CCN([n+]3cc([N-]C(=O)CSC(C)=O)on3)CC2)cc(OC)c1OC` [Example 40, N-((Acetylthio)acetyl)-3-(4-((3,4,5-trimethoxyphenyl)acetyl)piperazin-1-yl)sydnonimine], the IC50 came out at 0.28 µM.

Staying with this experiment, now noted: relaxation of continuous contraction due to 30 mM potassium chloride, thoracic aorta of male Sprague Dawley rats, read-out: Rat aorta IC50.
Turning to `CC(=O)SC[C@@H](C)C(=O)[N-]c1c[n+](N2CCN(C(=O)[C@@H]3CSC(=O)N3)CC2)no1` [Example 28, N-((S)-3-(Acetylthio)isobutyryl)-3-(4-((R)-2-oxo-4-thiazolidinecarbonyl)piperazin-1-yl)sydnonimine], the IC50 was 0.71 µM.

In the case of `C[C@H](CSC(=O)c1ccccc1)C(=O)[N-]c1c[n+](N2CCN(CCSC(=O)c3ccccc3)CC2)no1` [Example 52-B, N-((S)-3-(Benzoylthio)isobutyryl)-3-(4-(2-(benzoylthio)ethyl)piperazin-1-yl)sydnonimine], the 50% inhibitory concentration (IC50) worked out at 0.42 µM.

In the case of `COc1cc(CCN2CCN([n+]3cc([N-]C(=O)[C@H](C)CSC(=O)c4ccccc4)on3)CC2)cc(OC)c1OC` [Example 45, N-((S)-3-(Benzoylthio)isobutyryl)-3-(4-(2-(3,4,5-trimethoxyphenyl)ethyl)piperazin-1-yl)sydnonimine], the IC50 was determined as 0.78 µM.

Consider `CC(=O)SC[C@@H](C)C(=O)[N-]c1c[n+](N2CCN(C(=O)[C@H](C)CSC(=O)c3ccccc3)CC2)no1` [Example 29, N-((S)-3-(Acetylthio)isobutyryl)-3-(4-((S)-3-(benzoylthio)isobutyryl)piperazin-1-yl)sydnonimine], for which the IC50 came to 0.63 µM.

Take `O=C(CSC(=O)c1ccccc1)[N-]c1c[n+](N2CCN(C(=O)CSC(=O)c3ccccc3)CC2)no1` [Example 31]: the IC50 was 0.036 µM.

In the case of `CC(C)(C)c1cc(SCC(=O)N2CCN([n+]3cc([N-]C(=O)CSC(=O)c4ccccc4)on3)CC2)cc(C(C)(C)C)c1O` [Example 33, N-((Benzoylthio)acetyl)-3-(4-(3,5-di-t-butyl-4-hydroxyphenylthio)acetylpiperazin-1-yl)sydnonimine], the IC50 amounted to 0.18 µM.

On to `COc1ccccc1N1CCN([n+]2cc([N-]C(=O)[C@H](C)CSC(=O)c3ccccc3)on2)CC1` [Example 11, N-((S)-3-(Benzoylthio)isobutyryl)-3-(4-(2-methoxyphenyl)piperazin-1-yl)sydnonimine], for which the IC50 stood at 0.16 µM.

Consider `COc1cc(CN2CCN([n+]3cc([N-]C(=O)CSC(C)=O)on3)CC2)cc(OC)c1OC` [Example 48, N-((Acetylthio)acetyl)-3-(4-(3,4,5-trimethoxyphenylmethyl)piperazin-1-yl)sydnonimine], for which the IC50 was 0.11 µM.

In the case of `CC(=O)SC[C@@H](C)C(=O)[N-]c1c[n+](N2CCN(C(=O)CSc3cc(C(C)(C)C)c(O)c(C(C)(C)C)c3)CC2)no1` [Example 24-D], the IC50 came out at 0.47 µM.

On to `COc1ccc(CN2CCN([n+]3cc([N-]C(=O)CSc4cc(C(C)(C)C)c(O)c(C(C)(C)C)c4)on3)CC2)cc1OC` [Example 47, N-((3,5-Di-t-butyl-4-hydroxyphenylthio)acetyl)-3-(4-(3,4-dimethoxyphenylmethyl)piperazin-1-yl)sydnonimine], for which the IC50 stood at 0.94 µM.

Regarding `COc1cc(CC(=O)N2CCN([n+]3cc([N-]C(=O)[C@H](C)CSC(C)=O)on3)CC2)cc(OC)c1OC` [Example 25], the IC50 was 0.63 µM.

In the case of `COc1ccc(CN2CCN([n+]3cc([N-]C(=O)CSC(C)=O)on3)CC2)c(OC)c1OC` [Example 50, N-((Acetylthio)acetyl)-3-(4-(2,3,4-trimethoxyphenylmethyl)piperazin-1-yl)sydnonimine], the IC50 was 0.14 µM.

For `COc1cc(CC(=O)N2CCN([n+]3cc([N-]C(=O)CSC(=O)c4ccccc4)on3)CC2)cc(OC)c1OC` [Example 32], the IC50 was found to be 0.045 µM.

Consider `CC(=O)SC[C@@H](C)C(=O)[N-]c1c[n+](N2CCOCC2)no1` [Example 67, N-((S)-3-(Acetylthio)isobutyryl)-3-morpholinosydnonimine], for which the IC50 came to 0.54 µM.

On to `CC(=O)SCC(=O)N1CCN([n+]2cc([N-]C(=O)CSC(=O)c3ccccc3)on2)CC1` [Example 30-D, 3-(4-(Acetylthio)acetyl)piperazin-1-yl)-N-((benzoylthio)acetylsydnonimine], for which the IC50 turned out to be 0.12 µM.

Regarding `COc1cc(CN2CCN([n+]3cc([N-]C(=O)CSC(=O)c4ccccc4)on3)CC2)cc(OC)c1OC` [Example 49, N-((Benzoylthio)acetyl)-3-(4-(3,4,5-trimethoxyphenylmethyl)piperazin-1-yl)sydnonimine], the IC50 came to 0.046 µM.

For `C[C@H](CSC(=O)c1ccccc1)C(=O)[N-]c1c[n+](N2CCOCC2)no1` [Example 4, N-((S)-3-(Benzoylthio)isobutyryl)-3-morpholinosydnonimine], the IC50 was 0.023 µM.

Consider `CC1CCCC(C)N1[n+]1cc([N-]C(=O)CSC(=O)c2ccccc2)on1` (stereo not shown) [Example 16, N-((Benzoylthio)acetyl)-3-(2,6-dimethylpiperidin-1-yl)sydnonimine], for which the concentration for half-maximal inhibition (IC50) was determined as 0.056 µM.

For `COc1cc(CCN(C)[n+]2cc([N-]C(=O)[C@H](C)CSC(=O)c3ccccc3)on2)cc(OC)c1OC` [Example 64, N-((S)-3-(Benzoylthio)isobutyryl)-3-(N'-(2-(3,4,5-trimethoxyphenyl)ethyl)-N'-methylamino)sydnonimine], the IC50 worked out at 0.91 µM.

Turning to `C[C@H](CSC(=O)c1ccccc1)C(=O)[N-]c1c[n+](N(C)C)no1` [Example 5, N-((S)-3-(Benzoylthio)isobutyryl)-3-dimethylaminosydnonimine], the half-maximal inhibitory concentration (IC50) was determined as 0.57 µM.

In the case of `CC1CCCC(C)N1[n+]1cc([N-]C(=O)CSc2cc(C(C)(C)C)c(O)c(C(C)(C)C)c2)on1` (stereo not shown) [Example 13, N-((3,5-Di-t-butyl-4-hydroxyphenylthio)acetyl)-3-(2,6-dimethylpiperidin-1-yl)sydnonimine], the half-maximal inhibitory concentration (IC50) was found to be 0.55 µM.
